Measured values taken from PubChem BioAssay (NCI).
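At the GI50, growth is halved. Definition used: TGI = concentration required for complete inhibition of growth.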

What was measured:
Test in all cases: DTP human tumour cell line panel, 384-well format
[1] = tested on: IGROV1 ovarian
[2] = tested on: BT-549 breast
[3] = tested on: HS 578T breast
[4] = tested on: KM12 colon
[5] = tested on: HOP-62 NSCLC
[6] = tested on: SR leukemia
[7] = tested on: NCI-H322M lung
[8] = tested on: U251 glioblastoma
[9] = tested on: COLO 205 colon
[10] = tested on: RPMI-8226 leukemia
[11] = tested on: A498 renal
[12] = tested on: LOX IMVI melanoma
[13] = tested on: MDA-MB-231 breast

Row | Compound | GI50 [1] [µM] | TGI [1] [µM] | GI50 [2] [µM] | TGI [2] [µM] | GI50 [3] [µM] | TGI [3] [µM] | GI50 [4] [µM] | TGI [4] [µM] | GI50 [5] [µM] | TGI [5] [µM] | GI50 [6] [µM] | TGI [6] [µM] | GI50 [7] [µM] | TGI [7] [µM] | GI50 [8] [µM] | TGI [8] [µM] | GI50 [9] [µM] | TGI [9] [µM] | GI50 [10] [µM] | TGI [10] [µM] | also measured
1 | O=C(Nc1cccc(C(F)(F)F)c1)Nc1cc(S(=O)(=O)NC2CC2)ccc1-c1ccsc1 | 8.86 | 21.7 | 7.6 | 19.8 | 2.87 | 7.27 | 4.02 | 12.7 | 3.98 | 13.4 | 0.863 | 2.19 | 5.66 | 17.2 | 3.43 | 11.3 | 5.12 | 15.7 | 1.88 | 3.36 | GI50 [11]: 2.86 µM; TGI [11]: 8.34 µM; GI50 [12]: 4.08 µM; TGI [12]: 13.1 µM; GI50 [13]: 10.6 µM; TGI [13]: 23 µM
2 | CN(C)C(=O)c1cc2cnc(Nc3ccc(N4CCNCC4)cn3)nc2n1C1CCCC1 | 26.2 | 98.8 | 20.2 | 58.9 | 33 | > 58.5 | 2.51 | 35.5 | 29.2 | 67.6 | 0.507 | 1.97 | 21.3 | 59.5 | 30.8 | > 46.4 | 7.64 | 30.1 | 0.607 | 27.4 | GI50 [11]: 23.9 µM; TGI [11]: 45.1 µM; GI50 [12]: 8.51 µM; TGI [12]: 47.9 µM; GI50 [13]: 4.09 µM; TGI [13]: 33.7 µM
3 | COc1cc2nccc(Oc3ccc(NC(=O)C4(C(=O)Nc5ccc(F)cc5)CC4)cc3)c2cc1OC | 1.64 | 3.8 | 4.15 | 12.9 | 1.96 | 6.4 | 0.0614 | 14.3 | 5.16 | 24.2 | 2.95 | 4.49 | 3.36 | 16 | 5.32 | 17.9 | 2.14 | 4.97 | 3.09 | 7.73 | GI50 [11]: 3.29 µM; TGI [11]: 12.2 µM; GI50 [12]: 3.24 µM; TGI [12]: 9.47 µM; GI50 [13]: 2.48 µM; TGI [13]: 6.76 µM
